Source: publication PMC8155467 (ACS Central Science, 2021)

Key:
AKR1B10_C299A mutant = AKR1B10_C299A mutant (Homo sapiens, UniProt O60218, C299A); assay: AKR1B10 Inhibition Assay; format: biochemical; details: VC59 0.5-50 µM, 1 h; tolrestat, isolithocholic acid 500 nM, 15 min
AKR1B10 = AKR1B10 (Homo sapiens, UniProt O60218); details: cited from earlier work
AKR1B10, sequence (O60218 whole entry): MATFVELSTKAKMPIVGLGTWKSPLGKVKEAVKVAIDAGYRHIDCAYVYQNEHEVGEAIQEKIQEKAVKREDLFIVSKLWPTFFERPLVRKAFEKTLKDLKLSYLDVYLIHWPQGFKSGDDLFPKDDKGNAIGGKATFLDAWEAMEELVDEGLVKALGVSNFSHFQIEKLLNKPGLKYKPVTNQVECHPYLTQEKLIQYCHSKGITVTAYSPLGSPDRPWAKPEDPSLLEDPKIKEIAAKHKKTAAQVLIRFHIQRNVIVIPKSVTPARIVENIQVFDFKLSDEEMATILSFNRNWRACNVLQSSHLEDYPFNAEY

AKR1B10_C299A mutant, sequence (O60218 whole entry C299A): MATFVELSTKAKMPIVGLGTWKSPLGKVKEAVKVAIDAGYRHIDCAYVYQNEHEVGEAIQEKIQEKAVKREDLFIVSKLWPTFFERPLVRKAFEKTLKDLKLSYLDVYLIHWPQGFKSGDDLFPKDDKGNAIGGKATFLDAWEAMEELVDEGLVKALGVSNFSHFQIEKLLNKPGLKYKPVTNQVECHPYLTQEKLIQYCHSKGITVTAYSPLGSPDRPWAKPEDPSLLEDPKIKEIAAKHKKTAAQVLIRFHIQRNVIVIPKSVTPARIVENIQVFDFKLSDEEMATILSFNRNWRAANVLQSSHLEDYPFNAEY

Row | SMILES | inhibition of AKR1B10_C299A mutant reductase activity (NADPH absorbance assay) (AKR1B10_C299A mutant) | inhibition of AKR1B10 activity by natural electrophilic compounds engaging C299 (AKR1B10)
1 | COc1ccc2c(C(=S)N(C)CC(=O)O)cccc2c1C(F)(F)F [tolrestat] | maintained sensitivity | –
2 | CCCCC[C@H](O)/C=C/[C@H]1C=CC(=O)[C@@H]1CCCCCCC(=O)O [prostaglandin A1] | – | inhibit AKR1B10 activity
3 | C[C@H](CCC(=O)O)[C@H]1CC[C@H]2[C@@H]3CC[C@@H]4C[C@@H](O)CC[C@]4(C)[C@H]3CC[C@]12C [isolithocholic acid] | maintained sensitivity | –
